Measurements: ChEMBL document CHEMBL4507300 (2021)

Assays:
[1] = target: Serine/threonine-protein kinase SIK3 (Homo sapiens) (UniProt Q9Y2K2); settings: Compound concentration 1000.0 nM
[2] = target: Mast/stem cell growth factor receptor Kit (Homo sapiens) (UniProt P10721); settings: Compound concentration 1000.0 nM
[3] = target: Mitotic checkpoint serine/threonine-protein kinase BUB1 (Homo sapiens) (UniProt O43683); settings: Compound concentration 1000.0 nM
[4] = target: Serine/threonine-protein kinase WNK1 (Homo sapiens) (UniProt Q9H4A3); settings: Compound concentration 1000.0 nM
[5] = target: Serine/threonine-protein kinase DCLK2 (Homo sapiens) (UniProt Q8N568); settings: Compound concentration 1000.0 nM
[6] = target: D(4) dopamine receptor (Homo sapiens) (UniProt P21917); settings: Compound concentration 10.0 uM
Sequence of D(4) dopamine receptor (Homo sapiens) (P21917 whole entry): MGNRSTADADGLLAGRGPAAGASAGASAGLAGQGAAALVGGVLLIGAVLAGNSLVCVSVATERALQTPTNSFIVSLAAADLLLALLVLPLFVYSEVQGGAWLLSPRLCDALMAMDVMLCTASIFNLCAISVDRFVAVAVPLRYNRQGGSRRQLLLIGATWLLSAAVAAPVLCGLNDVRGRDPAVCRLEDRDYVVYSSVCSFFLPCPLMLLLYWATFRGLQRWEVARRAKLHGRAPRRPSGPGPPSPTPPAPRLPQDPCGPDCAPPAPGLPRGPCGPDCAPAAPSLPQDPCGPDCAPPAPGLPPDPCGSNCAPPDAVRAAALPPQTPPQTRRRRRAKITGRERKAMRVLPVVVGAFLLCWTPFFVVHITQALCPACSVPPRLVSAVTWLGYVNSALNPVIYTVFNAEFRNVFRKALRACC

[7] = target: Serine/threonine-protein kinase tousled-like 1 (Homo sapiens) (UniProt Q9UKI8); settings: Compound concentration 1000.0 nM
Sequence of Serine/threonine-protein kinase tousled-like 1 (Homo sapiens) (Q9UKI8 whole entry): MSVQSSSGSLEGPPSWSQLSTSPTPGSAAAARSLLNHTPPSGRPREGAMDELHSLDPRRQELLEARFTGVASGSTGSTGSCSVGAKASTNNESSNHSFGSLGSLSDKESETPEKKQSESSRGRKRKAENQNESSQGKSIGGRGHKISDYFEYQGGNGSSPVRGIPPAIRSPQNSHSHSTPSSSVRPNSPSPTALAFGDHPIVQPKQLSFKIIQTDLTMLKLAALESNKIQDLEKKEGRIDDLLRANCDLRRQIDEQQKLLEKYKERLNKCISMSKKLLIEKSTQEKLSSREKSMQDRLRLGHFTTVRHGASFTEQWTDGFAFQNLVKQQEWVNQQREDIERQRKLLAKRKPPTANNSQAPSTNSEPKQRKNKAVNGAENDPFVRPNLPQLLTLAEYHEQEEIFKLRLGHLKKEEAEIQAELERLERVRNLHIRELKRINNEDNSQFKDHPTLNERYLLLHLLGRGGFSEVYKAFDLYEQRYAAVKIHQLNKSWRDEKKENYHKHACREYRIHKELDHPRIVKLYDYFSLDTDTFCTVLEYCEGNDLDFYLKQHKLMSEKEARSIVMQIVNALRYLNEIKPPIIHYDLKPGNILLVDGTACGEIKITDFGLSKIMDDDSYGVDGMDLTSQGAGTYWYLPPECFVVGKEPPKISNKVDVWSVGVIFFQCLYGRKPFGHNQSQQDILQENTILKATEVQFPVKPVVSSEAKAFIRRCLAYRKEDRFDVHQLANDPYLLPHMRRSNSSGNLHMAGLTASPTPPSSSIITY

[8] = target: Glycogen synthase kinase-3 beta (Homo sapiens) (UniProt P49841); settings: Compound concentration 1000.0 nM
[9] = target: Cyclin-dependent kinase 15 (Homo sapiens) (UniProt Q96Q40); settings: Compound concentration 1000.0 nM
[10] = target: Death-associated protein kinase 1 (Homo sapiens) (UniProt P53355); settings: Compound concentration 1000.0 nM
[11] = tested on: Leucine-rich repeat serine/threonine-protein kinase 2 (Homo sapiens), Q5S007 [G2019S]; settings: Compound concentration 1000.0 nM
[12] = target: Dual serine/threonine and tyrosine protein kinase (Homo sapiens) (UniProt Q6XUX3); settings: Compound concentration 1000.0 nM
[13] = target: Dual specificity mitogen-activated protein kinase kinase 3 (Homo sapiens) (UniProt P46734); settings: Compound concentration 1000.0 nM
Sequence of Dual specificity mitogen-activated protein kinase kinase 3 (Homo sapiens) (P46734 whole entry): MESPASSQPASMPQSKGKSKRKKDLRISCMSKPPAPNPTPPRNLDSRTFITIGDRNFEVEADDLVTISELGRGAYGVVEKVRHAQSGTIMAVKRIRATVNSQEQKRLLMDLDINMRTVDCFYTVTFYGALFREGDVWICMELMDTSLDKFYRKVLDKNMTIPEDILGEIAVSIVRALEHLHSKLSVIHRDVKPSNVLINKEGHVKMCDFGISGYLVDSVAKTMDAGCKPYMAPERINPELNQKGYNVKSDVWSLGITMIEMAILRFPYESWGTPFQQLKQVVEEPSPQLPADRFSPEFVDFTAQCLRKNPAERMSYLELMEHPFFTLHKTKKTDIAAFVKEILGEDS

[14] = target: Cyclin-dependent kinase 19 (Homo sapiens) (UniProt Q9BWU1); settings: Compound concentration 1000.0 nM
[15] = target: Fibroblast growth factor receptor 3 (Homo sapiens) (UniProt P22607); settings: Compound concentration 1000.0 nM
[16] = target: Mitogen-activated protein kinase 12 (Homo sapiens) (UniProt P53778); settings: Compound concentration 1000.0 nM
[17] = tested on: Mast/stem cell growth factor receptor Kit (Homo sapiens), P10721 [A829P]; settings: Compound concentration 1000.0 nM
[18] = target: Serine/threonine-protein kinase ICK (Homo sapiens) (UniProt Q9UPZ9); settings: Compound concentration 1000.0 nM
[19] = target: Proto-oncogene tyrosine-protein kinase Src (Homo sapiens) (UniProt P12931); settings: Compound concentration 1000.0 nM
[20] = target: Mitogen-activated protein kinase kinase kinase 12 (Homo sapiens) (UniProt Q12852); settings: Compound concentration 1000.0 nM
[21] = target: Interleukin-1 receptor-associated kinase 4 (Homo sapiens) (UniProt Q9NWZ3); settings: Compound concentration 1000.0 nM
[22] = tested on: Mast/stem cell growth factor receptor Kit (Homo sapiens), P10721 [D816H]; settings: Compound concentration 1000.0 nM
[23] = target: Protein kinase C theta type (Homo sapiens) (UniProt Q04759); settings: Compound concentration 1000.0 nM
[24] = target: Serine/threonine-protein kinase pim-3 (Homo sapiens) (UniProt Q86V86); settings: Compound concentration 1000.0 nM
[25] = target: Beta-3 adrenergic receptor (Homo sapiens) (UniProt P13945); settings: Compound concentration 10.0 uM
[26] = target: Dual specificity tyrosine-phosphorylation-regulated kinase 1B (Homo sapiens) (UniProt Q9Y463); settings: Compound concentration 1000.0 nM
[27] = target: Cyclin-dependent kinase-like 5 (Homo sapiens) (UniProt O76039); settings: Compound concentration 1000.0 nM
[28] = tested on: Phosphatidylinositol 4,5-bisphosphate 3-kinase catalytic subunit alpha isoform (Homo sapiens), P42336 [I800L]; settings: Compound concentration 1000.0 nM
[29] = target: Mitogen-activated protein kinase kinase kinase 7 (Homo sapiens) (UniProt O43318); settings: Compound concentration 1000.0 nM
Sequence of Mitogen-activated protein kinase kinase kinase 7 (Homo sapiens) (O43318 whole entry): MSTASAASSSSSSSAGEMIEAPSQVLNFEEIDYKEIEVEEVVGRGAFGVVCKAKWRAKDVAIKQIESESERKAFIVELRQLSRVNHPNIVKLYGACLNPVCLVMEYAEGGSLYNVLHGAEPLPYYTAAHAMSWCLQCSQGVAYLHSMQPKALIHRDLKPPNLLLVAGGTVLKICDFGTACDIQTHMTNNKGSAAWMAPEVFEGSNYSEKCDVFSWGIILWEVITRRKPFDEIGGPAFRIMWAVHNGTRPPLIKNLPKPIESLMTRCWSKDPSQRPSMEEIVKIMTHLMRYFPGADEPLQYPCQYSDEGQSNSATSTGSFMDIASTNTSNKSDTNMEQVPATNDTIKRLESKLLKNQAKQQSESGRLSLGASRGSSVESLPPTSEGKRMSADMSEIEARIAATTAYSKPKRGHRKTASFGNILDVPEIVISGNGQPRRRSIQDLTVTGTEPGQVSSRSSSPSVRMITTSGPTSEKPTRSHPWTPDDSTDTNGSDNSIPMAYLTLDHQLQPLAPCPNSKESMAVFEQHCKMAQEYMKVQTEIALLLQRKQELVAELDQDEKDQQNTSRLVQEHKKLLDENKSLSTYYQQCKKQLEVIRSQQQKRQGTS

[30] = target: Proto-oncogene tyrosine-protein kinase ROS (Homo sapiens) (UniProt P08922); settings: Compound concentration 1000.0 nM
[31] = tested on: Tyrosine-protein kinase ABL1 (Homo sapiens), P00519 [T315I]; settings: Compound concentration 1000.0 nM
[32] = target: Homeodomain-interacting protein kinase 1 (Homo sapiens) (UniProt Q86Z02); settings: Compound concentration 1000.0 nM
[33] = target: Dual specificity tyrosine-phosphorylation-regulated kinase 1A (Homo sapiens) (UniProt Q13627); settings: Compound concentration 1000.0 nM
[34] = target: Cyclin-dependent kinase 7 (Homo sapiens) (UniProt P50613); settings: Compound concentration 1000.0 nM
[35] = target: Receptor tyrosine-protein kinase erbB-2 (Homo sapiens) (UniProt P04626); settings: Compound concentration 1000.0 nM
[36] = target: GABA-A receptor; anion channel (Rattus norvegicus) (UniProt O09028+P15431+P18506+P18508+P19969+P20236+P23574+P23576+P28471+P28473+P30191+P62813+P63079+P63138+Q91ZM7+Q9ES14); settings: Compound concentration 10.0 uM
[37] = target: Histamine H4 receptor (Homo sapiens) (UniProt Q9H3N8); settings: Compound concentration 10.0 uM
Sequence of Histamine H4 receptor (Homo sapiens) (Q9H3N8 whole entry, canonical isoform): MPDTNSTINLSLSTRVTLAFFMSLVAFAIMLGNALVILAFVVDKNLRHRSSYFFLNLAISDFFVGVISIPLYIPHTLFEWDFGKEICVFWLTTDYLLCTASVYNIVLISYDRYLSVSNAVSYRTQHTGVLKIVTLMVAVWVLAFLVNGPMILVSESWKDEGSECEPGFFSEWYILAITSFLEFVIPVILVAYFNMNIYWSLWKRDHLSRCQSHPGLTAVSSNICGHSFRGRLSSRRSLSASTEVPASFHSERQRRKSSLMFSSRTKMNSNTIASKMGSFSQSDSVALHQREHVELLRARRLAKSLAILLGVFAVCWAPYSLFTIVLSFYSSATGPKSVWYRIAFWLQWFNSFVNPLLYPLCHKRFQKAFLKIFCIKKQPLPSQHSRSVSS

[38] = target: Casein kinase I isoform epsilon (Homo sapiens) (UniProt P49674); settings: Compound concentration 1000.0 nM
[39] = target: Cyclin-dependent kinase 11B (Homo sapiens) (UniProt P21127); settings: Compound concentration 1000.0 nM
[40] = target: Serine/threonine-protein kinase D1 (Homo sapiens) (UniProt Q15139); settings: Compound concentration 1000.0 nM
[41] = target: Membrane-associated tyrosine- and threonine-specific cdc2-inhibitory kinase (Homo sapiens) (UniProt Q99640); settings: Compound concentration 1000.0 nM
[42] = target: Serine/threonine-protein kinase Nek4 (Homo sapiens) (UniProt P51957); settings: Compound concentration 1000.0 nM
[43] = target: Alpha-2B adrenergic receptor (Homo sapiens) (UniProt P18089); settings: Compound concentration 10.0 uM
[44] = target: Muscarinic acetylcholine receptor M5 (Homo sapiens) (UniProt P08912); settings: Compound concentration 10.0 uM

Sequence of Serine/threonine-protein kinase SIK3 (Homo sapiens) (Q9Y2K2 whole entry, looked up): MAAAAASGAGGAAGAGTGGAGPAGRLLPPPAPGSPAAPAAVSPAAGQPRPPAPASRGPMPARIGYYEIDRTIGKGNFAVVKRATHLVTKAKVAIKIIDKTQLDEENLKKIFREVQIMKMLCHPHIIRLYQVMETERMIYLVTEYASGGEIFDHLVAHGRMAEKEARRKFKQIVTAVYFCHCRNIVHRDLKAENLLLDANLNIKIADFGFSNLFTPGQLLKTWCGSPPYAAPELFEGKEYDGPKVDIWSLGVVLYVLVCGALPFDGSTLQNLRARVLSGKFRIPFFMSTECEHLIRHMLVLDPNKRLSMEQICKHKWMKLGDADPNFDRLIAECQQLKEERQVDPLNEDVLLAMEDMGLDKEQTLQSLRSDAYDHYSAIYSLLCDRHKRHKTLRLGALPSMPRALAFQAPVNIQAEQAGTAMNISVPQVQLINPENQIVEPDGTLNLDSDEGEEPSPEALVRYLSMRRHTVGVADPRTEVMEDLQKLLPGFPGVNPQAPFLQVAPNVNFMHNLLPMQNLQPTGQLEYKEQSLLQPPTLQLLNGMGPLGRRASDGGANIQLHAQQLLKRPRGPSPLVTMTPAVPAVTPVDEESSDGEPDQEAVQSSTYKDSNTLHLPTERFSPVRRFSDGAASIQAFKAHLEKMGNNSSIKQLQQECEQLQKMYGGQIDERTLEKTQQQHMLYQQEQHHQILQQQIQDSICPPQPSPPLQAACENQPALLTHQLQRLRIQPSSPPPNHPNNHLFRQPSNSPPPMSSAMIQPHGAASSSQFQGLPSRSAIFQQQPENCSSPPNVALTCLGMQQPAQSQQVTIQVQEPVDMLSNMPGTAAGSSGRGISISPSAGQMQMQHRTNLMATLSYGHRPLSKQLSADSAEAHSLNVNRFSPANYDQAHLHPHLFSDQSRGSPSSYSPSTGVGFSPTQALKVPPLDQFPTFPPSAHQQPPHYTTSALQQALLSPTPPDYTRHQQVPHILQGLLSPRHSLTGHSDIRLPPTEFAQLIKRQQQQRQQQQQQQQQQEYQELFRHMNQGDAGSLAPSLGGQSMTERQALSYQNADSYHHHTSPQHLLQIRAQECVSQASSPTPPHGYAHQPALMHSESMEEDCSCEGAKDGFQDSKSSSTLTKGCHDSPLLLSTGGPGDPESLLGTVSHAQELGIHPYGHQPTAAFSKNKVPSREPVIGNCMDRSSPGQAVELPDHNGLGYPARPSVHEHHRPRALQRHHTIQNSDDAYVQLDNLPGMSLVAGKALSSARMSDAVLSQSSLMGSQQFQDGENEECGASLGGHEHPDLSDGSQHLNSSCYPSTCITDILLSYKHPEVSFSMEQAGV
Sequence of Mitotic checkpoint serine/threonine-protein kinase BUB1 (Homo sapiens) (O43683 whole entry, looked up): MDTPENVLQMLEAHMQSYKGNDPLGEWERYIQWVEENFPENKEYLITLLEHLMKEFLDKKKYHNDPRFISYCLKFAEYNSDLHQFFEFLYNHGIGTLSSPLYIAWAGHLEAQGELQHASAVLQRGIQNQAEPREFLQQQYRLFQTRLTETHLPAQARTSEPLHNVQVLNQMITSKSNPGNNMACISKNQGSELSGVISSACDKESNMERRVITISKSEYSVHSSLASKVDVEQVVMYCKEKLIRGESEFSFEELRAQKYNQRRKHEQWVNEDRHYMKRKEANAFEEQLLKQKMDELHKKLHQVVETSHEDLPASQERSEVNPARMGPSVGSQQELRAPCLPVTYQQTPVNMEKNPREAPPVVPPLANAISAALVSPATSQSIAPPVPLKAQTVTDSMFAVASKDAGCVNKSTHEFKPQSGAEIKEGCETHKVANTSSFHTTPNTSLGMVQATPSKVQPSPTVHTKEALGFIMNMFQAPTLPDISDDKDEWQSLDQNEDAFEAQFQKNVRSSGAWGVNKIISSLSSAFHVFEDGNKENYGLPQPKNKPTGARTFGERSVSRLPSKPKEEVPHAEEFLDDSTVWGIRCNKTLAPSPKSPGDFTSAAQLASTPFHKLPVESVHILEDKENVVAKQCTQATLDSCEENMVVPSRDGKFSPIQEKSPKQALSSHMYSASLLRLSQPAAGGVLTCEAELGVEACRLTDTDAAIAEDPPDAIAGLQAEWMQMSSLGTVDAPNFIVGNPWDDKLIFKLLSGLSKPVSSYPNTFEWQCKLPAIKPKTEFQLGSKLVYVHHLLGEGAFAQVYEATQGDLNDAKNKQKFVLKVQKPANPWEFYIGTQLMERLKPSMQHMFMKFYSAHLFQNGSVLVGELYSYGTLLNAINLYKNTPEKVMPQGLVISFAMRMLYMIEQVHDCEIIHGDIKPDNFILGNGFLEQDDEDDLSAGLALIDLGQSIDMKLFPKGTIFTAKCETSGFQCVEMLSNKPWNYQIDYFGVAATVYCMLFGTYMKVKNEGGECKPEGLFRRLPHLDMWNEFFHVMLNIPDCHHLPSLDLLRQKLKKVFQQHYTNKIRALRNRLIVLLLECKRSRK

COc1cccc(CNC(=O)c2nc3scc(COCc4ccc(C(=O)O)cc4)c3c(=O)[nH]2)c1 [T-26c]
inactive: residual activity [1] 63.5% | residual activity [2] 93% | residual activity [3] 70.2% | residual activity [4] 76.7% | residual activity [5] 100% | inhibition [6] 13.9% | residual activity [7] 100% | residual activity [8] 62.6% | residual activity [9] 97.6% | residual activity [10] 100% | residual activity [11] 94.6% | residual activity [12] 54.5% | residual activity [13] 92.9% | residual activity [14] 100% | residual activity [15] 100% | residual activity [16] 92.1% | residual activity [17] 69.2% | residual activity [18] 66.1% | residual activity [19] 100% | residual activity [20] 58.2% | residual activity [21] 85% | residual activity [22] 59% | residual activity [23] 100% | residual activity [24] 100% | inhibition [25] 7.44% | residual activity [26] 100% | residual activity [27] 89.5% | residual activity [28] 77.2% | residual activity [29] 60.2% | residual activity [30] 100% | residual activity [31] 77.5% | residual activity [32] 88.4% | residual activity [33] 89.5% | residual activity [34] 80.5% | residual activity [35] 97.2% | inhibition [36] 19% | inhibition [37] 17.6% | residual activity [38] 100% | residual activity [39] 85.4% | residual activity [40] 100% | residual activity [41] 88% | residual activity [42] 83.8% | inhibition [43] 11% | inhibition [44] -7.42%
